This is an account of results in patent US20140010824A1 (priority 2012, published 2014).

In brackets after ≈: the same amount, converted by molar mass.

Holding throughout (experiment): microbe, parasite or virus in culture
The test system of one assay is Yptb(P^−) pGC1 (empty). The class given is cell-based. The settings on record: Yersinia pseudotuberculosis, read-out: minimum inhibitory concentration (MIC).
Assay [1] deals with Yptb(P^−) ΔmrtAB pGC1 (empty). The class given is cell-based. The note with it: for MIC: Yersinia pseudotuberculosis, read-out: minimum inhibitory concentration (MIC).
In assay [2] the test system is Yptb(P^−) ΔmrtAB pmrtA^+B^+. The class given is cell-based. The settings on record: Yersinia pseudotuberculosis, read-out: minimum inhibitory concentration (MIC).
The test system of a further assay is Yptb(P^−) pmrtA^+B^+. It counts as cell-based, Yersinia pseudotuberculosis. The note with it: for MIC: Yersinia pseudotuberculosis, read-out: minimum inhibitory concentration (MIC).
The subject of assay [3] is Yptb(P^−) ΔmrtAB pmrtA^+B^+ flag. The class given is cell-based. The note with it: Yersinia pseudotuberculosis, read-out: minimum inhibitory concentration (MIC).

As to `CN(C)c1ccc2cc3ccc(N(C)C)cc3nc2c1` [aeridine orange, N,N,N′,N′-tetramethylacridine-3,6-diamine], the MIC (in the assay with Yptb(P^−) pGC1 (empty); in assay [1]; in assay [2]; in the assay with Yptb(P^−) pmrtA^+B^+) was 50 µg/mL (≈ 188 µM) in each case.

On to `CC[n+]1c(-c2ccccc2)c2cc(N)ccc2c2ccc(N)cc21` [ethidium bromide], for which the MIC is 25 µg/mL in the assay on Yptb(P^−) pGC1 (empty); 25 µg/mL in assay [1]; 100 µg/mL in assay [2]; 100 µg/mL with Yptb(P^−) pmrtA^+B^+; 100 µg/mL in assay [3].

Take `Cn1c2cccc(=O)c-2nc2ccccc21` [pyocyanin]: the MIC in the assay with Yptb(P^−) pGC1 (empty) is 1 µg/mL (≈ 4.76 µM); in assay [1], 1 µg/mL (≈ 4.76 µM); in assay [2], 0.25 µg/mL (≈ 1.19 µM); in the assay with Yptb(P^−) pmrtA^+B^+ it was 0.25 µg/mL (≈ 1.19 µM); in assay [3], 0.25 µg/mL (≈ 1.19 µM). The “difference in MIC resulting from the absence of MrtAB” value in assay [1] is recorded as “No difference was detected”. Further, in the assay on Yptb(P^−) pmrtA^+B^+, the “change of susceptibility on expression of mrtAB on multi-copy plasmid (pACYC 184 derivative)” value is “increased susceptibility”.
